From US20200131238A1, “METHOD FOR PROMOTING ADIPOCYTE DIFFERENTIATION AND OBESITY-RELATED DISEASE TREATMENT” (AMERICAN UNIVERSITY, priority 2018, published 2020)

Experiments:
[1] = test system: NRG1; assay: NRG1 isoform expression in stem cells after DAC treatment (RT-qPCR); type: cell-based, human
Description: A. Microarray data showing that NRG1 is preferentially expressed in clonal cell line AF2, both stem cells and adipocytes. UCP1 is a brown adipose tissue (BAT) marker and UCP2 is a white adipose tissue (WAT) marker. Adiponectin (ADIPOQ) shown as a differentiation control. P-values calculated relative to NRG4 using 1-way ANOVA. Analysis of gene expression in mouse adipose precursor cell lines isolated from inguinal (B) or perigonadal (C) depots of a male mouse. […] NRG, Neuregulin; UCP, uncoupling protein; AdipoQ, adiponectin. Isoform-specific epigenetic induction of NRG1 expression in primary human cells, clonal (D) and raw processed lipoaspirate (E). Expression of NRG1 is induced with demethylating agent decitabine (DAC). Types I-III represent distinct transcriptional start sites within the NRG1 locus and produce different mRNA isoforms (see FIG. 7D for map). The Type III isoform is specifically DAC responsive. P-values derived from Tukey's HSD post-hoc test after ANOVA and are relative to corresponding matched DMSO control. Note Type II isoform expression was not detected in the stem cells.
First, by evaluating gene expression in stem cells immediately after DAC treatments (rather than differentiated cells), we minimized secondary gene expression changes caused by the differentiation process itself. […]

[2] = test system: AF2 cells; assay: adipose differentiation assay with AF2 clonal cells; type: cell-based, human
Description: Because patient-derived cells, such as ASCs, are highly heterogeneous, it is vital to ensure that the differences in cell behavior are truly fate decisions and not a measure of non-stem cell contamination (perhaps immune cells, fibroblasts, or other cells). We therefore have performed our experiments with clonally-derived cells expanded in the inventor's laboratory. Many of our experiments use a single clonal line isolated from ASC080414A (Zen-Bio, Inc.), called the AF2 line. Clonal isolation has the advantage of minimizing both genetic and epigenetic variance, which enabled us to identify a highly significant signal in our data (FIG. 6E).
First, by evaluating gene expression in stem cells immediately after DAC treatments (rather than differentiated cells), we minimized secondary gene expression changes caused by the differentiation process itself. Second, hypothesizing that the expression of driver genes will more strongly correlate with differentiation efficiency than passenger genes, we obtained the Pearson's correlation between candidate gene expression in stem cells and the relative formation of adipocytes after 14-18 days of adipogenic induction. Third, we used a clonal cell line (AF2) in order to minimize epigenetic variability between cells. […]

Nc1ncn([C@H]2C[C@H](O)[C@@H](CO)O2)c(=O)n1 [DAC, 5-aza-2′-deoxycitidine]
up-regulation of one NRG1 isoform (Type III) relative to DMSO control ([1]; 1 μM DAC): approximately 10 fold
increase of NRG1 Type I isoform ([1]; DAC vs DMSO): ~2 fold

B1: NRG1 EGF-β peptide: recombinant NRG1 EGF-β domain peptide, 65 amino acids, BioLegend Cat # 711104 (protein, listed as Homo sapiens)
chain: SHLVKCAEKEKTFCVNGGECFMVKDLSNPSRYLCKCPNEFTGDRCQNYVMASFYKHLGIEFMEAE
differentiation induction by recombinant NRG1 peptide added to culture media ([2]; AF2 clonal cells): able to recapitulate the differentiation induction observed with DAC
activating dose of NRG1 peptide ([2]; stem cells, FIGS. 7A,B,C): 200 ng/mL
